Results from patent US8853213B2, “Bicyclic compound for modulating G protein-coupled receptors” (Hanmi Pharm. Co., Ltd, priority 2011, dated 2014).

biological target: T1, GPR119 (Homo sapiens, UniProt Q8TDV5); assay: Controlling Effect of GPR119 in CRE-bla CHO-K1 Cells (EC50); format: cell-based; conditions: GPR119 CRE-bla CHO-K1 cell line, 5 hr incubation with compound, β-lactamase LiveBLAzer-FRET B/G readout; read-out: controlling effect against GPR119 in CRE-bla CHO-K1 cell line (EC50)
T1 construct: host or cells: CHO-K1 (CRE-bla reporter, doxycycline-induced)
T1 sequence (Q8TDV5 1-335): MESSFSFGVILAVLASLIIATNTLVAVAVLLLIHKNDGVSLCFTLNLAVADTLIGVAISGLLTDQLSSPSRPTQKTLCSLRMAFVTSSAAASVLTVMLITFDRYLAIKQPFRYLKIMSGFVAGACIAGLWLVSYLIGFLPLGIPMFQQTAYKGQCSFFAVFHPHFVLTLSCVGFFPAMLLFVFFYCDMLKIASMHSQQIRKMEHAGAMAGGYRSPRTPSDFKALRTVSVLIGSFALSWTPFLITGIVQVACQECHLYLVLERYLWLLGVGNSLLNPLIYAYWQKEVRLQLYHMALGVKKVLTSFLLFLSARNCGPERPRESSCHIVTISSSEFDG
Summary of the method: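 CHO-K1 cells carrying GPR119 and a CRE-β-lactamase reporter, induced with doxycycline for 16-20 h at 37° C, then exposed to compounds in 10-fold dilutions for 5 h. CCF4-AM FRET substrate added for 2 h at room temperature; blue/green fluorescence (409 ex, […]) read and EC50 derived.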

Compound | EC50
COC(=O)c1ccc(-c2csc3c(OC4CCN(c5nc(C(C)C)no5)CC4)ncnc23)cc1 [Example 102, 4-{4-[1-(3-isopropyl-[1,2,4]oxadiazol-5-yl)-piperidin-4-yloxy]-thieno[3,2-d]pyrimidin-7-yl}-benzoic acid methylester] | 100 to 1000 nM
CC(=O)c1ccc(-c2csc3c(OC4CCN(c5nc(C(C)C)no5)CC4)ncnc23)cc1 [Example 103, 1-(4-{4-[1-(3-isopropyl-[1,2,4]oxadiazol-5-yl)-piperidin-4-yloxy]-thieno[3,2-d]pyrimidin-7-yl}-phenyl)-ethanone] | < 100 nM
CC(C)c1noc(N2CCC(Oc3ncnc4c(-c5ccc(S(=O)(=O)C6CC6)cc5)csc34)CC2)n1 [Example 104, 7-(4-cyclopropylsulfonyl-phenyl)-4-[1-(3-isopropyl-[1,2,4]oxadiazol-5-yl)-piperidin-4-yloxy]-thieno[3,2-d]pyrimidine] | < 100 nM
CC(C)c1noc(N2CCC(Oc3ncnc4c(-c5ccc(S(=O)(=O)C(C)C)cc5)csc34)CC2)n1 [Example 105, 4-[1-(3-isopropyl-[1,2,4]oxadiazol-5-yl)-piperidin-4-yloxy]-7-(4-isopropylsulfonyl-phenyl)-thieno[3,2-d]pyrimidine] | < 100 nM
CCCS(=O)(=O)c1ccc(-c2csc3c(OC4CCN(c5nc(C(C)C)no5)CC4)ncnc23)cc1 [Example 106, 4-[1-(3-isopropyl-[1,2,4]oxadiazol-5-yl)-piperidin-4-yloxy]-7-(4-propylsulfonyl-phenyl)-thieno[3,2-d]pyrimidine] | < 100 nM
CCCS(=O)(=O)c1ccc(-c2csc3c(OC4CCN(c5nc(C(C)C)no5)CC4)ncnc23)c(F)c1 [Example 107, 7-(2-fluoro-(4-propylsulfonyl)-phenyl)-4-[1-(3-isopropyl-[1,2,4]oxadiazol-5-yl)-piperidin-4-yloxy]-thieno[3,2-d]pyrimidine] | < 100 nM
CC(C)c1noc(N2CCC(Oc3ncnc4c(-c5ccc(S(=O)(=O)C6CCCC6)cc5)csc34)CC2)n1 [Example 108, 7-(4-cyclopentylsulfonyl-phenyl)-4-[1-(3-isopropyl-[1,2,4]oxadiazol-5-yl)-piperidin-4-yloxy]-thieno[3,2-d]pyrimidine] | < 100 nM
CC(C)(C)OC(=O)N1CCC(Nc2ncnc3c(-c4ccc(S(C)(=O)=O)cc4)csc23)CC1 [Example 109, tert-butyl 4-(7-(4-methanesulfonyl-phenyl)thieno[3,2-d]pyrimidin-4-ylamino)piperidin-1-carboxylate] | 100 to 1000 nM
CS(=O)(=O)c1ccc(-c2csc3c(NC4CCNCC4)ncnc23)cc1 [Example 110, 7-(4-methanesulfonyl-phenyl)-N-(piperidin-4-yl)thieno[3,2-d]pyrimidin-4-amine] | > 1000 nM
CCc1cnc(N2CCC(Nc3ncnc4c(-c5ccc(S(C)(=O)=O)cc5)csc34)CC2)nc1 [Example 111, N-(1-(5-ethylpyrimidin-2-yl)piperidin-4-yl)-7-(4-methanesulfonyl-phenyl)thieno[3,2-d]pyrimidin-4-amine] | > 1000 nM
CN(c1ncnc2c(-c3ccc(S(C)(=O)=O)cc3)csc12)C1CCN(C(=O)OC(C)(C)C)CC1 [Example 112, tert-butyl 4-(methyl(7-(4-methanesulfonyl-phenyl)thieno[3,2-d]pyrimidin-4-yl)amino)piperidin-1-carboxylate] | < 100 nM
CCc1cnc(N2CCC(N(C)c3ncnc4c(-c5ccc(S(C)(=O)=O)cc5)csc34)CC2)nc1 [Example 114, [1-(5-ethylpyrimidin-2-yl)-piperidin-4-yl]-[7-(4-methanesulfonyl-phenyl)-thieno[3,2-d]pyrimidin-4-yl]-methylamine] | > 1000 nM
CCN(c1ncnc2c(-c3ccc(S(C)(=O)=O)cc3)csc12)C1CCN(c2ccc(C(F)(F)F)cn2)CC1 [Example 115, Ethyl-[7-(4-methanesulfonyl-phenyl)-thieno[3,2-d]pyrimidin-4-yl]-(5′-trifluoromethyl-3,4,5,6-tetrahydro-2H-[1,2′]bipyridinyl-4-yl)amine] | > 1000 nM
Cn1cc(-c2ccc(S(C)(=O)=O)cc2)c2ncnc(NC3CCN(C(=O)OC(C)(C)C)CC3)c21 [Example 116, tert-butyl 4-(5-methyl-7-(4-methanesulfonyl-phenyl)-5H-pyrrolo[3,2-d]pyrimidin-4-ylamino)piperidin-1-carboxylate] | > 1000 nM
CC(C)c1noc(C2CCN(c3ncnc4c(-c5ccc(S(C)(=O)=O)cc5)cn(C)c34)CC2)n1 [Example 117, 3-isopropyl-5-(1-(5-methyl-7-(4-methanesulfonyl-phenyl)-5H-pyrrolo[3,2-d]pyrimidin-4-yl)piperidin-4-yl)-1,2,4-oxadiazole] | 100 to 1000 nM
CC(C)c1noc(C2CCN(c3ncnc4c(-c5ccc(-n6cnnn6)cc5)csc34)CC2)n1 [Example 118, 5-(1-(7-(4-(1H-tetrazol-1-yl)phenyl)thieno[3,2-d]pyrimidin-4-yl)piperidin-4-yl)-3-iso propyl-1,2,4-oxadiazole] | 100 to 1000 nM
CC(C)(C)c1noc(N2CCC(Oc3ncnc4c(-c5ccc(-n6cncn6)cc5)csc34)CC2)n1 [Example 119, 5-(4-(7-(4-(1H-1,2,4-triazol-1-yl)phenyl)thieno[3,2-d]pyrimidin-4-yloxy)piperidin-1-yl)-3-tert-butyl-1,2,4-oxadiazole] | < 100 nM
Cn1cc(-c2ccc(-n3cnnn3)cc2)c2ncnc(OC3CCN(C(=O)OC(C)(C)C)CC3)c21 [Example 120, tert-butyl 4-(7-(4-(1H-tetrazol-1-yl)phenyl)-5-methyl-5H-pyrrolo[3,2-d]pyrimidin-4-yloxy)piperidin-1-carboxylate] | < 100 nM
CCc1cnc(N2CCC(Oc3ncnc4c(-c5ccc(N)cc5)cn(C)c34)CC2)nc1 [Example 121, 4-(4-(1-(5-ethylpyrimidin-2-yl)piperidin-4-yloxy)-5-methyl-5H-pyrrolo[3,2-d]pyrimidin-7-yl)benzenamine] | > 1000 nM
CCc1cnc(N2CCC(Oc3ncnc4c(-c5ccc(-n6cnnn6)cc5)cn(C)c34)CC2)nc1 [Example 122, 7-(4-(1H-tetrazol-1-yl)phenyl)-4-(1-(5-ethylpyrimidin-2-yl)piperidin-4-yloxy)-5-methyl-5H-pyrrolo[3,2-d]pyrimidine] | < 100 nM
Cn1cc(-c2ccc(-n3cnnn3)cc2)c2ncnc(OC3CCN(c4ncc(C(F)(F)F)cn4)CC3)c21 [Example 123, 7-(4-(1H-tetrazol-1-yl)phenyl)-5-methyl-4-(1-(5-(trifluoromethyl)pyrimidin-2-yl)piperidin-4-yloxy)-5H-pyrrolo[3,2-d]pyrimidine] | < 100 nM
Cn1cc(-c2ccc(-n3cnnn3)cc2)c2ncnc(O[C@H]3CCN(C(=O)OC(C)(C)C)C3)c21 [Example 125, (S)-tert-butyl 3-[5-methyl-7-(4-tetrazol-1-yl-phenyl)-5H-pyrrolo[3,2-d]pyrimidin-4-yloxy)pyrrolidin-1-carboxylate] | > 1000 nM
